According to patent US10668024B2, “Mesoporous silica nanoparticles for biomedical applications” (The Regents of the University of California, priority 2007, dated 2020):

Legend:
PANC-1 cells [1] = experiment: Apoptosis assay (propidium iodide/Hoechst 33342, DNA fragmentation, caspase-3 Western blot); format: cell-based, human; settings: 24 hours
Procedure: Cell death was also examined using the propidium iodide and Hoechst 33342 double-staining method. The cells were stained with propidium iodide/Hoechst 33342 (1:1) for 5 minutes and then examined using fluorescence microscope. DNA fragmentation assay was also performed. PANC-1 cells were treated for 24 hours with: (1) 100 nM CPT in PBS, (2) 100 nM CPT loaded in FMSN (suspended in PBS), or (3) 64 μg/ml nonloaded FMSN in PBS, then washed twice with ice-cold PBS and collected by trypsinization. The cell pellets were resuspended in 500 μl of Tris-EDTA buffer (20 mM Tris-HCl [pH 8.0], 20 mM EDTA) containing 0.1% SDS and proteinase K (0.5 mg/ml) at 50° C. for 2 hours and then treated with RNase A (0.02 mg/ml) for 30 minutes at 37° C. DNA was extracted using phenol/chloroform and ethanol precipitation and was dissolved in distilled water, separated on a 2% agarose gel, and stained with ethidium bromide.
Proteins were separated by gel electrophoresis on a polyacrylamide gel containing sodium dodecyl sulfate (SDS), and then transferred to nitrocellulose membranes. The membranes were blocked with tris buffer saline (TBS) containing 5% (W/V) skim milk. […] Bands were detected with an ECL system (Amersham Pharmacia Biotech K.K., UK).

PANC-1 cells [2] = experiment: Fluorescence and confocal microscopy, Example 2; format: cell-based, human; settings: suspension of CPT in PBS, 100 nM, 3 hours incubation
Excerpt: (§1) Human cancer cell lines, PANC-1, AsPC-1, Capan-1 (pancreatic), MKN45 (gastric), and SW480 (colon) were obtained from the American Type Culture Collection and were maintained in Dulbecco's modified Eagle's medium (DMEM) (GIBCO) or RPMI-1640 (Cellgro) supplemented with 10% fetal calf serum (Sigma), 2% L-glutamine, 1% penicillin, and 1% streptomycin stock solutions. The media were changed every 3 days, and the cells were passaged by trypsinization before confluence.
The fluorescence of the nanoparticles at 470 nm excitation wavelength was used to confirm the cellular uptake of FMSN. […] The cells were then monitored by fluorescence microscope with an excitation wavelength at 470 nm. To examine the location of FMSN within the cells, Acridine Orange (AO) (Sigma) and lysoSensor green DND-189 (Invitrogen) were used to monitor lysosomes and endosomes. Cells were cultured overnight on a Lab-Tek chamber slide system (Nalge Nunc International). After the cells were incubated with FMSN for 3 hours, they were washed with PBS and examined with confocal microscope (λex=470 nm) (Carl Zeiss LSM 310 Laser Scanning Confocal microscope). […] This property allows the use of fluorescence to study the distribution of CPT inside the cells. PANC-1 cells were incubated with CPT-loaded FMSN or CPT suspended in PBS (100 nM) for 3 hours, washed with PBS 3 times, and then examined by fluorescence microscope under UV.

PANC-1 cells [3] = experiment: Cell death assay (WST-8), Example 2; format: cell-based, human
Excerpt: as §1

SW480 cells = experiment: Cell death assay (WST-8), Example 2; format: cell-based, human
Excerpt: as §1

MKN-45 cells = experiment: Cell death assay (WST-8), Example 2; format: cell-based, human
Excerpt: as §1

Capan-1 cells = experiment: Cell death assay (WST-8), Example 2; format: cell-based, human
Excerpt: as §1

AsPc-1 cells = experiment: Cell death assay (WST-8), Example 2; format: cell-based, human
Excerpt: as §1

PANC-1 cells [4] = experiment: Confocal microscopy of FMSN uptake, Example 3; format: cell-based, human; settings: 0.1% sodium azide, sucrose 0.45 M, bafilomycin A 0.05 μM, nocodazole 2 μg/ml, brefeldin A 5 μg/ml
Procedure: The fluorescence of FITC was used to monitor cellular uptake of FMSN. Cells were incubated with FMSN for 3 h at 37° C. under a 5% CO2 95% air atmosphere in an 8-chamber Lab-Tek chamber slide system with covers (Nalge Nunc International), washed with phosphate buffered saline (PBS) and examined with confocal microscopy (λex=470 nm) (Carl Zeiss LSM 310 Laser Scanning Confocal microscopy). To examine the distribution of FMSN within the cells, the same cells were then incubated with 6 μM of Acridine Orange (AO) (Sigma), which specifically stains lysosomes/endosomes to red (Canonico, P. G. and Bird, J. W. C. (1969), J. Cell Biol. 43, 367-371), for 1 h in DMEM without phenol red, washed with PBS, and examined by confocal microscopy again (λex=488 nm). The emission light was passed through a 560-nm short-pass dichroic mirror. The green emission was passed through a 530-nm bandpass filter, and the red emission was passed through a 600-nm longpass filter. Both emissions were simultaneously collected using two photomultiplier tubes.
To determine whether the uptake of FMSN into cancer cells was energy-dependent, the cells were incubated with FMSN under different metabolic conditions. The uptake assay was performed in the presence of sodium azide, sucrose, bafilomycin A, nocodazole or brefeldin A. Cells were seeded on 8-chamber Lab-Tek chamber slides for 24 h, then preincubated at 4° C. with either 0.1% sodium azide, or sucrose (0.45 M), or bafilomycin A (0.05 μM), or nocodazole (2 μg/ml), or brefeldin A (5 μg/ml) for 10 min. The FMSN suspension in PBS was then added and the cells were incubated for additional 3 h at 37° C. The uptake was stopped by washing the cells three times with cold PBS, and then the cells were fixed with 4% paraformaldehyde in PBS for 1 h at room temperature and washed with PBS. The chambers of slides were removed, and each slide was mounted with fluorescence-free glycerol-based mounting medium (Fluoromount-G; Southern Biotechnology Associates, USA) by cover glasses. Cells were analyzed by confocal microscopy (Carl Zeiss LSM 310 Laser Scanning Confocal microscopy).

cancer cells = settings: relative to CPT; cited from earlier work
PANC-1 cells [5] = experiment: Cell morphology analysis by light microscopy; settings: PANC-1, paclitaxel dissolved in DMSO

## CC[C@@]1(O)C(=O)OCc2c1cc1n(c2=O)Cc2cc3ccccc3nc2-1 [CPT, camptothecin]
PANC-1 cells [1]; PANC-1, CPT dissolved in DMSO, compared with CPT-loaded FMSN
  mechanism of cell death (propidium iodide/Hoechst 33342 double staining): similar
PANC-1 cells [2]
  CPT fluorescence in cells: remained nonfluorescent
PANC-1 cells [3]; PANC-1, CPT dissolved in DMSO, 24 h treatment + 48 h
  cytotoxicity / growth inhibition: growth inhibition of different human cancer cells was observed
PANC-1 cells [3]; PANC-1, CPT suspended in PBS, even at high concentrations
  cytotoxicity: did not show any cytotoxicity
SW480 cells; SW480, CPT dissolved in DMSO, 24 h treatment + 48 h
  cytotoxicity / growth inhibition: growth inhibition of different human cancer cells was observed
SW480 cells; SW480, CPT suspended in PBS, even at high concentrations
  cytotoxicity: did not show any cytotoxicity
MKN-45 cells; MKN-45, CPT dissolved in DMSO, 24 h treatment + 48 h
  cytotoxicity / growth inhibition: growth inhibition of different human cancer cells was observed
MKN-45 cells; MKN-45, CPT suspended in PBS, even at high concentrations
  cytotoxicity: did not show any cytotoxicity
Capan-1 cells; Capan-1, CPT dissolved in DMSO, 24 h treatment + 48 h
  cytotoxicity / growth inhibition: growth inhibition of different human cancer cells was observed
Capan-1 cells; Capan-1, CPT suspended in PBS, even at high concentrations
  cytotoxicity: did not show any cytotoxicity
AsPc-1 cells; AsPc-1, CPT dissolved in DMSO, 24 h treatment + 48 h
  cytotoxicity / growth inhibition: growth inhibition of different human cancer cells was observed
AsPc-1 cells; AsPc-1, CPT suspended in PBS, even at high concentrations
  cytotoxicity: did not show any cytotoxicity

## CO/C1=C\C(C)=C\[C@@H](C)[C@@H](O)[C@@H](C)C/C(C)=C/C=C/[C@H](OC)[C@@H]([C@@H](C)[C@@H](O)[C@H](C)[C@@]2(O)C[C@@H](O)[C@H](C)[C@@H](C(C)C)O2)OC1=O [bafilomycin A]
PANC-1 cells [4]
  effect of preincubation with inhibitor on uptake of FMSN: completely suppressed the uptake

## CCc1c2c(nc3ccc(OC(=O)N4CCC(N5CCCCC5)CC4)cc13)-c1cc3c(c(=O)n1C2)COC(=O)[C@]3(O)CC [irinotecan]
Cancer cells
  cytotoxicity to cancer cells compared to CPT: 10%

## C[C@H]1CCC/C=C/[C@@H]2C[C@H](O)C[C@H]2[C@H](O)/C=C/C(=O)O1 [brefeldin A]
PANC-1 cells [4]
  effect of preincubation with inhibitor on uptake of FMSN: did not show any effect

## C[S+](C)[O-] [DMSO, dimethyl sulfoxide]
PANC-1 cells [1]; PANC-1, 10% DMSO
  mechanism of cell death (propidium iodide/Hoechst 33342 double staining): induced necrosis

## CC(=O)O[C@H]1C(=O)[C@@]2(C)[C@H]([C@H](OC(=O)c3ccccc3)[C@]3(O)C[C@H](OC(=O)[C@H](O)[C@@H](NC(=O)c4ccccc4)c4ccccc4)C(C)=C1C3(C)C)[C@]1(OC(C)=O)CO[C@@H]1C[C@@H]2O [paclitaxel]
PANC-1 cells [5]
  morphologic change of the cells: Cells became round and smaller

## COC(=O)Nc1nc2ccc(C(=O)c3cccs3)cc2[nH]1 [nocodazole]
PANC-1 cells [4]
  effect of preincubation with inhibitor on uptake of FMSN: significantly disrupted the uptake

## OC[C@H]1O[C@@](CO)(O[C@H]2O[C@H](CO)[C@@H](O)[C@H](O)[C@H]2O)[C@@H](O)[C@@H]1O [sucrose]
PANC-1 cells [4]
  effect of preincubation with inhibitor on uptake of FMSN: suppressed the uptake
